Assay results as given in US20240197687A1, “METHODS OF TREATING NEUROINFLAMMATION AND INHIBITING MONOAMINE OXIDASE-A AND RESTORING/UPREGULATING/INCREASING IL-13 AND AND PGC-1 BY ADMINISTERING ORAL DOSAGE FORM CONTAINING MICRONIZED AND NONMICRONIZED PARTICULATE METAXALONE, ALGINIC ACID AND PROPYLENE GLYCOL ALGINATE” (Primus Pharmaceuticals, Inc., priority 2022, published 2024).

Experiments:
CCI mice = conditions: cited from earlier work
PINP rats = conditions: cited from earlier work
RIM rats = conditions: melatonin supplementation, gastrocnemius muscle; cited from earlier work
FM fibroblasts = conditions: AMPK activation; cited from earlier work
[1] = system: rat model of ischemia-reperfusion injury; conditions: cited from earlier work
[2] = system: paclitaxel-induced neuropathic pain; conditions: via induction of the NRF-2/HO-1 signaling pathway in the spinal cord; cited from earlier work
[3] = system: rat periodontal disease model; conditions: MAO up-regulation triggered by LPS; cited from earlier work
HMC3 microglial cells = test: MTT cell viability assay; conditions: 24, 48 and 72 h, metaxalone 10, 20, 40 μg/mL, staurosporine 100 nM positive control

In the case of `CC1(C)CC[C@]2(NC(=O)C(C)(F)F)CC[C@]3(C)[C@H](C(=O)C=C4[C@@]5(C)C=C(C#N)C(=O)C(C)(C)[C@@H]5CC[C@]43C)[C@@H]2C1` [RTA-408], the “mechanical allodynia (von Frey test)” value (CCI mice; CCI mice, dose-dependent) is listed as “significantly reversed”, the “thermal hyperalgesia (Hargreaves plantar test)” value (CCI mice; CCI mice, dose-dependent) is listed as “significantly reversed” and the “mitochondrial biogenesis (MB)” value (CCI mice; L4-6 spinal cord of CCI mice, NRF-2-dependent) is listed as “significantly restored”. For the same compound, the “activity of NRF-2” value (CCI mice; L4-6 spinal cord of CCI mice) was “increased”.

In the case of `Cc1ccc(CN(CC(O)COc2cccc3[nH]ccc23)C(C)(C)C)cc1` (stereo not drawn) [SR-18292], the “analgesic effect of formoterol against PINP in presence of PGC-1α inhibitor” value (PINP rats; PINP rats) is listed as “partially abolished”.

For `COc1ccc(CC(C)NCC(O)c2ccc(O)c(NC=O)c2)cc1` (stereo not drawn) [formoterol], the “ADRB2 expression, mtDNA copy number and PGC-1α, NRF-1, TFAM protein expression” value (PINP rats; spinal cord of PINP rats) is listed as “restored”.

For `COc1ccc2[nH]cc(CCNC(C)=O)c2c1` [melatonin], the “studied parameters (PGC-1α, Mfn2, CoQ10), oxidative stress” value (RIM rats) is given as “significantly preserved all the studied parameters”.

In the case of `CN(C)C(=N)N=C(N)N` [metformin], the “response to moderate oxidative stress and mitochondrial metabolism” value (FM fibroblasts) is listed as “improved”.

In the case of `O=C(NCCN1CCOCC1)c1ccc(Cl)cc1` [moclobemide], the inflammatory process [1] is listed as “attenuate”.

For `Cc1c(-c2cnccn2)ssc1=S` [oltipraz], the paclitaxel-induced neuropathic pain [2] is given as “significantly attenuate”.

For `NNCCc1ccccc1` [phenelzine], the oxidative stress [3] is given as “significantly reduce”.

For `CN[C@@H]1C[C@H]2O[C@@](C)([C@@H]1OC)n1c3ccccc3c3c4c(c5c6ccccc6n2c5c31)C(=O)NC4` [staurosporine], the “cell viability (MTT)” value (HMC3 microglial cells) was “significant reduction in cell viability”.
